In patent US7671061B2, “Methods and compositions for treating pain” (Hydra Biosciences, Inc., priority 2005, dated 2010):

How the values were obtained:
hTRPV3 = molecular target: T1, hTRPV3 (Homo sapiens, UniProt Q8NET8); assay: hTRPV3 patch clamp selectivity; type: cell-based; details: Table 2
T1 sequence (Q8NET8 1-790): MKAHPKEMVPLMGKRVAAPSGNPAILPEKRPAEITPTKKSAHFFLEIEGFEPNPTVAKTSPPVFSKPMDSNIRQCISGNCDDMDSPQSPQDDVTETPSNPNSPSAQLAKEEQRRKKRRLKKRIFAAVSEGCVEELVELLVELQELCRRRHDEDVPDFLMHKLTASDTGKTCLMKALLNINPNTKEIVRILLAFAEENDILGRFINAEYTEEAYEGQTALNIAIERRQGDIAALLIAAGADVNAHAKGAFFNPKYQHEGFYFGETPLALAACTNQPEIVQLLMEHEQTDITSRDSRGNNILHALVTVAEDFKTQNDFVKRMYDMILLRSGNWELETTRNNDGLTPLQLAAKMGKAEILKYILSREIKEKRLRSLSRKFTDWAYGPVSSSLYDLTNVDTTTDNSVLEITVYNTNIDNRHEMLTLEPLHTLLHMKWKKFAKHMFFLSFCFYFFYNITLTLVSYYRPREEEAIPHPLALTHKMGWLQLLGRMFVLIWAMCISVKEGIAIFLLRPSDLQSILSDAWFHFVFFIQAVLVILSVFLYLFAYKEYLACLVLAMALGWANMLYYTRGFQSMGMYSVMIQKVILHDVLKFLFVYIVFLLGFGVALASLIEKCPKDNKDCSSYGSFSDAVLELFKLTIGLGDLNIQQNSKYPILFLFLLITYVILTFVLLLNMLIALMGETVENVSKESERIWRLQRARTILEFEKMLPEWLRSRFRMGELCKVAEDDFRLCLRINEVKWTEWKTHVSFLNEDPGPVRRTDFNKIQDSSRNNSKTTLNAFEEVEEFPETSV

hTRPA1 [1] = molecular target: T2, hTRPA1 (Homo sapiens, UniProt O75762, K186N); assay: High throughput Ca2+ fluorescence (Fluo4) assay, AITC stimulation; type: cell-based; details: Table 2; read-out: hTRPA1 Fluor IC50
T2 construct: expressed in transfected cells; host or cells: HEK293/TREx (Invitrogen), induced with tetracycline
T2 sequence (O75762 whole entry K186N): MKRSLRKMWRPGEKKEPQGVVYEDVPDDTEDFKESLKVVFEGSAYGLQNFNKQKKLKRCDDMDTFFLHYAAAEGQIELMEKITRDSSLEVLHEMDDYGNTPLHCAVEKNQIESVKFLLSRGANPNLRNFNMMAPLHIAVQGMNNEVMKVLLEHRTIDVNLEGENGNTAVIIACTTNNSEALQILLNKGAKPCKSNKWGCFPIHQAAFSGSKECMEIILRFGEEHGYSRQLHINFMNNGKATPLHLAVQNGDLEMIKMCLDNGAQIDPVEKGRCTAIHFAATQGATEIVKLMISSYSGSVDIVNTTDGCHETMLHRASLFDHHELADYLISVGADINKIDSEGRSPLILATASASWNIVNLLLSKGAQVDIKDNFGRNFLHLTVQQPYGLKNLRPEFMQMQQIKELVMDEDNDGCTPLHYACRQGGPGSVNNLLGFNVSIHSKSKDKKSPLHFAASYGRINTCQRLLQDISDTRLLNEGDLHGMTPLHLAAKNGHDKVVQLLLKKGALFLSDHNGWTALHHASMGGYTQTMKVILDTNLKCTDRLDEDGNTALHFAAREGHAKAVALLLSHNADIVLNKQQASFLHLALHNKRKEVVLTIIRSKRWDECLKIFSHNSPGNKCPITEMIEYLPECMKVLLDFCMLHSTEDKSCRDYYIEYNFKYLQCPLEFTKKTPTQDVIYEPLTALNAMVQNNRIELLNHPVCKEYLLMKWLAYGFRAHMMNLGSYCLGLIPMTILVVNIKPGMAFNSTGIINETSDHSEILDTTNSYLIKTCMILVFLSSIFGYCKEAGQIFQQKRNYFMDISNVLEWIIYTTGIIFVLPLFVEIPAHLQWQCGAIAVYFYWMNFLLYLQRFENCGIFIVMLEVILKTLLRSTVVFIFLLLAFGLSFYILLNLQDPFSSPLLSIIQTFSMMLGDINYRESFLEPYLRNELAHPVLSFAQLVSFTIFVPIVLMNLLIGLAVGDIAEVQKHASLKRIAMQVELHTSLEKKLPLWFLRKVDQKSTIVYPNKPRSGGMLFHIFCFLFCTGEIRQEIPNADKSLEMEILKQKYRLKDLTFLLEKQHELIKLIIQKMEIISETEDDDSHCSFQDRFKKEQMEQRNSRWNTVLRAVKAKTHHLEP
Summary of the method: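 Read-out is Fluo4 fluorescence, proportional to [Ca2+]i, over ~3 min after AITC challenge, following 2 min compound pre-exposure in HEK293/TREx cells induced with 1 μg/ml tetracycline. Dye: 1 μM, 60 min, room temperature.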

hTRPA1 [2] = molecular target: T2, hTRPA1; assay: TRPA1 patch clamp (perforated patch, AITC-activated current); type: cell-based; details: Table 2; inward current; read-out: hTRPA1 Patch Inwd IC50
Summary of the method: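 HEK293 TREx cells expressing the channel were recorded by amphotericin perforated patch at −40 mV holding, with 400 ms ramps from −120 to +100 mV every 5 s. Current was activated with 5 μM AITC in pH 7.4 external solution, and block of inward and outward current was measured at −80 and +80 mV with AITC still present.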

hERG = hERG (Homo sapiens, UniProt Q12809); assay: hERG patch clamp (Qpatch) selectivity; details: Table 2
Chain of hERG (Q12809 whole entry): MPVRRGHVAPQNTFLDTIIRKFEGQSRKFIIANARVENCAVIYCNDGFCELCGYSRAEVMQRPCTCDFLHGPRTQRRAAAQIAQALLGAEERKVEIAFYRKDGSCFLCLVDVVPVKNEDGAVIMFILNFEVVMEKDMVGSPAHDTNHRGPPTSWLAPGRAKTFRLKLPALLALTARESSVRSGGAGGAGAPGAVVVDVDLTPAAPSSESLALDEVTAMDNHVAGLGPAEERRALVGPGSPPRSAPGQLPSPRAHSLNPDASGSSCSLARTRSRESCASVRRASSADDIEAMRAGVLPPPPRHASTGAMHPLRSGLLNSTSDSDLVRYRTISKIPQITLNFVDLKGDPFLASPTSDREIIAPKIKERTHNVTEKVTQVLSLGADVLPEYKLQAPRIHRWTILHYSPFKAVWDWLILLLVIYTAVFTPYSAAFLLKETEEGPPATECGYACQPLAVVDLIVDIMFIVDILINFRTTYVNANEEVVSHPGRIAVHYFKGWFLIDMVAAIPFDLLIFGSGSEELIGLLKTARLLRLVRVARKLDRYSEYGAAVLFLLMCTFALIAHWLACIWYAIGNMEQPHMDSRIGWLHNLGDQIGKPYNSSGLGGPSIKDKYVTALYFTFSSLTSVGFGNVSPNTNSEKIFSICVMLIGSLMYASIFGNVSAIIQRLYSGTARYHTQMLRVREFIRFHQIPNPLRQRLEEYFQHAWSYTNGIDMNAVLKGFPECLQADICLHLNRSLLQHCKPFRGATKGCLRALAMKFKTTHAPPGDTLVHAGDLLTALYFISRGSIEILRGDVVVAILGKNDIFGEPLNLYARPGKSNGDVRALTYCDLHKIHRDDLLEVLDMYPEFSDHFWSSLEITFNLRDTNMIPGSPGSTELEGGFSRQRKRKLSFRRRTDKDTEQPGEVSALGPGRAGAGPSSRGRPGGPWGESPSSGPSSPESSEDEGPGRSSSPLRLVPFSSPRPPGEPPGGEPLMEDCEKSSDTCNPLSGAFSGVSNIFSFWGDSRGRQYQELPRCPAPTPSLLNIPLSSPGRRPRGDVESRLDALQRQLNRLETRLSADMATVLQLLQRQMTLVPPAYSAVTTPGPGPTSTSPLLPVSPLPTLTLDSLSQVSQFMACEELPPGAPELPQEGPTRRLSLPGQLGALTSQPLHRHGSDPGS

hTRPV4 = hTRPV4 (Homo sapiens, UniProt Q9HBA0); assay: hTRPV4 patch clamp selectivity; type: cell-based; details: Table 2
Chain of hTRPV4 (Q9HBA0 whole entry): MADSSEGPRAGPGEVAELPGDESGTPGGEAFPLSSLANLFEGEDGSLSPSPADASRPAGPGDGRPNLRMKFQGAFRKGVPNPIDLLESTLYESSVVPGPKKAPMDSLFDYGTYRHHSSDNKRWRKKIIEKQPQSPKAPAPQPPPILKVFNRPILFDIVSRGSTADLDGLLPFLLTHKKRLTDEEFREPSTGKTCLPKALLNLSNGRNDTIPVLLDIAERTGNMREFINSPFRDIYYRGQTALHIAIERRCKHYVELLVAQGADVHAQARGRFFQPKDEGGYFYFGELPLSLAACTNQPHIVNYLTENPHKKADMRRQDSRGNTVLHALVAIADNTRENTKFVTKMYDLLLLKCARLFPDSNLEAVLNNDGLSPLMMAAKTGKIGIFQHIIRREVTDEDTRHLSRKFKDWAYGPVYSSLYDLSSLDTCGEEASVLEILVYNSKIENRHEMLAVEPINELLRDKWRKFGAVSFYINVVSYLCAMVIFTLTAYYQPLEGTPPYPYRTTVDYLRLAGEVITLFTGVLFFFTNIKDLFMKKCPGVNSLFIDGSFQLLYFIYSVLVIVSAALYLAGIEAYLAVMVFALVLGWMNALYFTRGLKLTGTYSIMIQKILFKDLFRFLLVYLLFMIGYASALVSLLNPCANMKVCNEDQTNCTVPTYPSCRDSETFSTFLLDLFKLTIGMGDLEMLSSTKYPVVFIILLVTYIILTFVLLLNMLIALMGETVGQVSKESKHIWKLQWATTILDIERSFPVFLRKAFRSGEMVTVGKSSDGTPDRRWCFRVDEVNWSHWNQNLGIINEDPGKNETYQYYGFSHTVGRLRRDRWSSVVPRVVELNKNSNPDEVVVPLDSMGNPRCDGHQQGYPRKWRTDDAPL

selective for TRPA1 over TRPV3 (hTRPV3) | IC50 (hTRPV3; read-out: hTRPV3 P1 inward IC50) | IC50 (hTRPA1 [1]) | IC50 (hTRPA1 [2]) | IC50 (hTRPV4) | selective for TRPA1 over TRPV4 (hTRPV4) | SMILES | IC50 (hERG; hERG IC50 (nM)) | selectivity ratio (hERG; human, selective for TRPA1 over hERG)
≥ 4 fold | ≤ 10 µM | ≤ 5 µM | ≤ 5 µM |  |  | Cn1c(=O)c2c(ncn2CC(=O)Nc2nc3ccccc3s2)n(C)c1=O [Compound 239] |  | 
 |  | ≤ 1 µM | ≤ 1 µM | > 10 µM | ≥ 15 fold | Cn1c(=O)c2c(ncn2CC(=O)Nc2ccc3c(c2)OC2(CCCCC2)O3)n(C)c1=O [Compound 347] | ≥ 20000 nM | ≥ 45
